Key:
wild buckwheat (POLCO) = test: Postemergence greenhouse trial, % visual injury on wild buckwheat; format: in vivo, Polygonum convolvulus; settings: alone, 35 g/ha
Method: (§1) Seeds of the desired test plant species were planted in Sun Gro MetroMix® 306 planting mixture, which typically has a pH of 6.0 to 6.8 and an organic matter content of about 30 percent, in plastic pots with a surface area of 103.2 square centimeters (cm^2). When required to ensure good germination and healthy plants, a fungicide treatment and/or other chemical or physical treatment was applied. The plants were grown for 7-36 days (d) in a greenhouse with an approximate 14-hour (h) photoperiod which was maintained at about 23° C. during the day and 22° C. during the night. Nutrients and water were added on a regular basis and supplemental lighting was provided with overhead metal halide 1000-Watt lamps as necessary. The plants were employed for testing when they reached the second or third true leaf stage.
(§2) Weighed amounts of technical material were dissolved in a volume of 97:3 volume per volume (v/v) acetone/dimethyl sulfoxide (DMSO) to stock solutions. […] The concentrated stock solutions were diluted with an aqueous mixture of 1.5% v/v of Agri-dex crop oil concentrate to provide the appropriate application rates. Compound requirements are based upon a 12 milliliter (mL) application volume at a rate of 187 liters per hectare (L/ha). Stocks solutions of the safeners were prepared following the same procedure. Spray solutions of the safeners and experimental compound mixtures were prepared by adding the stock solutions to the appropriate amount of dilution solution to form a 12 mL spray solution in two-way combinations. Formulated compounds were applied to the plant material with an overhead Mandel track sprayer equipped with 8002E nozzles calibrated to deliver 187 L/ha over an application area of 0.503 square meters (m^2) at a spray height of 18 inches (43 centimeters (cm)) above average plant canopy. Control plants were sprayed in the same manner with the solvent blank. All herbicide application (component a) rates are in g ae/ha and all safener (component b) rates are in g ai/ha.
(§3) The treated plants and control plants were placed in a greenhouse as described above and watered by sub-irrigation to prevent wash-off of the test compounds. After 20-22 d, the condition of the test plants as compared with that of the control plants was determined visually and scored on a scale of 0 to 100 percent where 0 corresponds to no injury and 100 corresponds to complete kill. The condition of the test plants was compared with that of the control plants as determined visually and scored on a scale of 0 to 100 percent, where 0 corresponds to no injury and 100 corresponds to complete kill. Colby's equation was used to determine the herbicidal effects expected from the mixtures.
(§4) The safener cloquintocet-mexyl was combined with compound 1, compound 2, compound 4, compound 5, and compound 6, and applied to corn/maize (ZEAMX) and spring wheat (TRZAS) and the phytotoxicity of the herbicidal compositions was measured. In addition, the efficacy of the herbicidal composition on velvetleaf (ABUTH, Abutilon theophrasti), pigweed (AMARE, Amaranthus retroflexus), winter rape (BRSNW, Brassica napus), lambsquarters (CHEAL, Chenopodium album), thistle (CIRAR, Cirsium arvense), nutsedge (CYPES, Cyperus esculentus), poinsettia (EPHHL, Euphorbia heterophylla), wild buckwheat (POLCO, Polygonum convolvulus), giant foxtail (SETFA, Setaria faberi), and chickweed (STEME, Stellaria media) was evaluated.
(§5) The safener cloquintocet-mexyl was combined with compound 1, compound 2, compound 3, compound 7, compound 8, compound 9, compound 10, compound 11, compound 12, compound 13, compound 14, compound 15, compound 16, compound 17, compound 18, compound 19, and compound 20, and applied to spring wheat (TRZAS), winter wheat (TRZAW), and spring barley (HORVS) and the phytotoxicity of the herbicidal compositions was measured. […]

chickweed (STEME) = test: Postemergence greenhouse trial, % visual injury on chickweed; format: in vivo, Stellaria media; settings: alone, 35 g/ha
Method: as §1, §2, §3
as §4, with “evaluated. […]” for “evaluated.”

velvetleaf (ABUTH) = test: Postemergence greenhouse trial, % visual injury on velvetleaf; format: in vivo, Abutilon theophrasti; settings: alone, 35 g/ha
Method: as §1, §2, §3, §4, §5

giant foxtail (SETFA) = test: Postemergence greenhouse trial, % visual injury on giant foxtail; format: in vivo, Setaria faberi; settings: alone, 35 g/ha
Method: as §1
(§6) Weighed amounts of technical material were dissolved in a volume of 97:3 volume per volume (v/v) acetone/dimethyl sulfoxide (DMSO) to stock solutions. […] The concentrated stock solutions were diluted with an aqueous mixture of 1.5% v/v of Agri-dex crop oil concentrate to provide the appropriate application rates. Compound requirements are based upon a 12 milliliter (mL) application volume at a rate of 187 liters per hectare (L/ha). […]
as §3, with “Colby's equation was used to determine the herbicidal effects expected from the mixtures.” left out
The safener cloquintocet-mexyl was combined with compound 1, compound 2, compound 4, compound 5, and compound 6, and applied to corn/maize (ZEAMX) and spring wheat (TRZAS) and the phytotoxicity of the herbicidal compositions was measured. […]

winter rape (BRSNW) = test: Postemergence greenhouse trial, % visual injury on winter rape; format: in vivo, Brassica napus; settings: Brassica napus, post-emergence; alone, 35 g/ha; read-out: % visual injury, Ob
In short: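 Visual injury, 0 (none) to 100 (complete kill), rated 20-22 d after overhead track-sprayer application at 187 L/ha; Colby's equation gave expected mixture responses. Herbicide (g ae/ha) and cloquintocet-mexyl safener (g ai/ha) diluted in aqueous 1.5% v/v Agri-dex, applied to weeds at 2–3 true leaves.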

thistle (CIRAR) = test: Postemergence greenhouse trial, % visual injury on thistle; format: in vivo, Cirsium arvense; settings: Cirsium arvense, post-emergence; alone, 35 g/ha; read-out: % visual injury, Ob
Method: as §1, §2, §3
as §4, with “evaluated. […]” for “evaluated.”

spring wheat (TRZAS) = test: Postemergence greenhouse trial, % visual injury on spring wheat; format: in vivo, Triticum aestivum; settings: alone, 35 g/ha
In short: (§7)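 Injury was scored visually (0 = none, 100 = complete kill) 20–22 d after track-sprayer application at 187 L/ha, compared with solvent-sprayed controls. Test plants at the 2–3 true leaf stage; herbicide (g ae/ha) plus cloquintocet-mexyl safener (g ai/ha) in crop-oil-containing spray; expected mixture response by Colby.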

lambsquarters (CHEAL) = test: Postemergence greenhouse trial, % visual injury on lambsquarters; format: in vivo, Chenopodium album; settings: Chenopodium album, post-emergence; alone, 35 g/ha; read-out: % visual injury, Ob
Method: as §1, §2, §3, §4, §5

pigweed (AMARE) = test: Postemergence greenhouse trial, % visual injury on pigweed; format: in vivo, Amaranthus retroflexus; settings: Amaranthus retroflexus, post-emergence; alone, 35 g/ha; read-out: % visual injury, Ob
In short: as §7

corn/maize (ZEAMX) = test: Postemergence greenhouse trial, % visual injury on corn/maize; format: in vivo, Zea mays; settings: alone, 35 g/ha
Method: as §1, §2, §3
as §4, with “evaluated. […]” for “evaluated.”

poinsettia (EPHHL) = test: Postemergence greenhouse trial, % visual injury on poinsettia; format: in vivo, Euphorbia heterophylla; settings: alone, 35 g/ha
Method: as §1
as §6, with “(L/ha). Stocks solutions of the safeners were prepared following the same procedure.” for “(L/ha).”
as §3, with “Colby's equation was used to determine the herbicidal effects expected from the mixtures.” left out
as §4, with “evaluated. […]” for “evaluated.”

COC(=O)c1nc(-c2ccc3ccn(C(=O)C(C)(C)C)c3c2F)c(F)c(N)c1Cl [compound 5]
% visual injury, Ob (wild buckwheat (POLCO)): 100%
% visual injury, Ob (chickweed (STEME)): 85%
% visual injury, Ob (velvetleaf (ABUTH)): 80%
% visual injury, Ob (giant foxtail (SETFA)): 60%
plant injury at 35 g/ha (winter rape (BRSNW)): 97%
pest or weed control at 35 g/ha (thistle (CIRAR)): 80%
% visual injury, Ob (spring wheat (TRZAS)): 45%
pest or weed control at 35 g/ha (lambsquarters (CHEAL)): 100%
pest or weed control at 35 g/ha (pigweed (AMARE)): 100%
% visual injury, Ob (corn/maize (ZEAMX)): 35%
% visual injury, Ob (poinsettia (EPHHL)): 100%
